In ChEMBL document CHEMBL1129695, “Synthesis and structure-activity relationships of 6-substituted androst-4-ene analogs as aromatase inhibitors” (J Med Chem, 1996) one finds IC50 and Ki data, which are given here for 23 compounds.

Some results are limits rather than exact numbers.

Assay [1] addresses T1, Aromatase (Homo sapiens, UniProt P11511).
T1 sequence (P11511 whole entry): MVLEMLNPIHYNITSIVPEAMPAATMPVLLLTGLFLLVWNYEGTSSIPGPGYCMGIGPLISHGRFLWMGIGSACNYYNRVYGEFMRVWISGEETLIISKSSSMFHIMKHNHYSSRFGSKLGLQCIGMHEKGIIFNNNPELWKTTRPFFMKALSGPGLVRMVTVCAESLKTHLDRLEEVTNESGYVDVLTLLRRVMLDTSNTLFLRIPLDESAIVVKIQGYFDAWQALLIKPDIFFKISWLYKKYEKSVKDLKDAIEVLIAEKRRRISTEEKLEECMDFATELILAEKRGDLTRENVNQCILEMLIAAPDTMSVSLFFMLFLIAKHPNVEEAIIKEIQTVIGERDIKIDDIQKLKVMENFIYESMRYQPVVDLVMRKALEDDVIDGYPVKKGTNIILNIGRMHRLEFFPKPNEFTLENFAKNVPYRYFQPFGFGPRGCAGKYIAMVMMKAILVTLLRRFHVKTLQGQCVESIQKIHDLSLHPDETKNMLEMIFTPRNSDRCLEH
Description: In vitro inhibition of cytochrome P450 19A1 in human placental microsomes

Assay [2] addresses T1, Aromatase. This is another data set of the same source.
Description: Apparent inhibition constant (Ki) against Cytochrome P450 19A1

Broadly, the IC50 is the point on the concentration scale where inhibition reaches its midpoint. Low readings indicate higher potency, high ones lower potency. For orientation: Ki means the dissociation constant of the complex between target and ligand, obtained from inhibition or displacement. On to `CC(=O)O[C@H]1CC2C3CCC(=O)C3(C)CCC2C2(C)CCCC=C12` (some centres undefined), for which the IC50 on Aromatase [1] came to 160 nM. At Aromatase [2], this compound showed a Ki of 18 nM.
In the same order, the values of `CC[C@@H]1CC2C(CCC3(C)C(O)CCC23)C2(C)CCCC=C12` (some centres undefined) are 3300 nM and 340 nM.
In the same order, the values of `C[C@@H]1CC2C(CCC3(C)C(O)CCC23)C2(C)CCCC=C12` (some centres undefined) are 1600 nM and 140 nM.
In turn, `CCCCCCCC[C@H]1CC2C(CCC3(C)C(O)CCC23)C2(C)CCCC=C12` (some centres undefined) had an IC50 at Aromatase [1] greater than 50000 nM.
Regarding `C[C@@H]1CC2C3CCC(=O)C3(C)CCC2C2(C)CCCC=C12` (some centres undefined), on Aromatase [1], the IC50 worked out at 49 nM. Also, the affinity at Aromatase [2], expressed as Ki, was 5.3 nM.
On the same counts, the results for `CO[C@@H]1CC2C3CCC(=O)C3(C)CCC2C2(C)CCCC=C12` (some centres undefined) are 130 nM and 12 nM.
`C[C@H]1CC2C3CCC(=O)C3(C)CCC2C2(C)CCCC=C12` (some centres undefined) came in with an IC50 against Aromatase [1] of 37 nM. Moreover, the affinity on Aromatase [2], expressed as Ki, was 3.1 nM.
Consider `CCCCCCCC[C@@H]1CC2C(CCC3(C)C(O)CCC23)C2(C)CCCC=C12` (some centres undefined), for which the concentration for half-maximal inhibition (IC50) at Aromatase [1] was greater than 50000 nM.
For the compound `CC(=O)O[C@@H]1CC2C3CCC(=O)C3(C)CCC2C2(C)CCCC=C12` (some centres undefined), half-maximal inhibition at Aromatase [1] (IC50) was put at 260 nM. The Ki on Aromatase [2] amounted to 24 nM.
On the same counts, the results for `CCC[C@@H]1CC2C3CCC(=O)C3(C)CCC2C2(C)CCCC=C12` (some centres undefined) are 440 nM and 51 nM.
On the same counts, the results for `CC[C@@H]1CC2C3CCC(=O)C3(C)CCC2C2(C)CCCC=C12` (some centres undefined) are 320 nM and 43 nM.
`CCCCC[C@@H]1CC2C3CCC(=O)C3(C)CCC2C2(C)CCCC=C12` (some centres undefined) displayed an IC50 on Aromatase [1] of 12000 nM. On Aromatase [2], this compound came in with a Ki of 1200 nM.
In the same order, the values of `CO[C@H]1CC2C3CCC(=O)C3(C)CCC2C2(C)CCCC=C12` (some centres undefined) are 120 nM and 12 nM.
On the same counts, the results for `CCCCCCCC[C@H]1CC2C3CCC(=O)C3(C)CCC2C2(C)CCCC=C12` (some centres undefined) are greater than 50000 nM and 4100 nM.
In the same order, the values of `CC[C@H]1CC2C(CCC3(C)C(O)CCC23)C2(C)CCCC=C12` (some centres undefined) are 1300 nM and 180 nM.
As to `CC12CCCC=C1CCC1C2CCC2(C)C1CC[C@@H]2O` (some centres undefined), on Aromatase [1], the IC50 came out at 360 nM. The affinity at Aromatase [2], expressed as Ki, was 45 nM.
For the compound `C[C@H]1CC2C(CCC3(C)C(O)CCC23)C2(C)CCCC=C12` (some centres undefined), half-maximal inhibition against Aromatase [1] (IC50) required 3700 nM. The same compound displayed a Ki at Aromatase [2] of 380 nM.
On the same counts, the results for `CCC[C@H]1CC2C3CCC(=O)C3(C)CCC2C2(C)CCCC=C12` (some centres undefined) are 230 nM and 30 nM.
`CCCCC[C@H]1CC2C3CCC(=O)C3(C)CCC2C2(C)CCCC=C12` (some centres undefined) yielded a 50% inhibitory concentration (IC50) on Aromatase [1] of 9000 nM. Affinity at Aromatase [2] was put at a Ki of 400 nM.
On the same counts, the results for `CCCCC[C@@H]1CC2C(CCC3(C)C(O)CCC23)C2(C)CCCC=C12` (some centres undefined) are greater than 50000 nM and 100000 nM.
On the same counts, the results for `CCCCC[C@H]1CC2C(CCC3(C)C(O)CCC23)C2(C)CCCC=C12` (some centres undefined) are greater than 50000 nM and 44000 nM.
On the same counts, the results for `CC[C@H]1CC2C3CCC(=O)C3(C)CCC2C2(C)CCCC=C12` (some centres undefined) are 110 nM and 43 nM.
At Aromatase [1], `CCCCCCCC[C@@H]1CC2C3CCC(=O)C3(C)CCC2C2(C)CCCC=C12` (some centres undefined) yielded an IC50 greater than 50000 nM. The same compound yielded a Ki on Aromatase [2] of 2600 nM.
